Laboratory results as given in EP4745137A1 (Gluetacs Therapeutics (Shanghai) Co., Ltd., priority 2023, dated 2025).

Legend:
IKZF1 = target: T1, IKZF1 (Homo sapiens, UniProt Q13422+Q96SW2); test: Western-blot assay of substrate protein degradation in hPBMCs, IKZF1; assay type: cell-based; details: 24 hours of compound treatment
T1 construct: endogenous in cells; host or cells: hPBMCs (Milecell Biotechnologies)

WEE1 = target: T2, WEE1 (Homo sapiens, UniProt P30291+Q96SW2); test: Western-blot assay of substrate protein degradation in hPBMCs, WEE1; assay type: cell-based; details: 24 hours of compound treatment
T2 construct: endogenous in cells; host or cells: hPBMCs (Milecell Biotechnologies)
T2 sequence (P30291 whole entry): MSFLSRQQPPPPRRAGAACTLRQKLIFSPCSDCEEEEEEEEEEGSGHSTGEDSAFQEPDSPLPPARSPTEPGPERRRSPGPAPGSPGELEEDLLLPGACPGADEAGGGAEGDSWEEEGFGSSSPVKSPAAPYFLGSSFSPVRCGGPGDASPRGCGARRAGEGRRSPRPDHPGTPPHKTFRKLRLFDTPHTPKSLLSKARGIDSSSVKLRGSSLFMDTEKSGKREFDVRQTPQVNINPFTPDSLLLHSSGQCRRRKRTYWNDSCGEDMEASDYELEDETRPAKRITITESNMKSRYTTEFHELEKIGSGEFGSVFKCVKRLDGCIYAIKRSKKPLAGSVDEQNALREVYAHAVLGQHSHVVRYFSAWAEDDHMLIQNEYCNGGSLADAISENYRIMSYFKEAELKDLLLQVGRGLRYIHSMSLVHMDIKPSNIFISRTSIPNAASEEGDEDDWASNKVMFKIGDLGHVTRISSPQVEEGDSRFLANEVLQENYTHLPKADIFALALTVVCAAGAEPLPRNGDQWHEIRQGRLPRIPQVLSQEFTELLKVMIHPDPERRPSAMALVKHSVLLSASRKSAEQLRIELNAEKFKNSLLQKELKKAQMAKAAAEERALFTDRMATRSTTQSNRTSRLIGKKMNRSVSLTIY
T2 sequence (Q96SW2 whole entry): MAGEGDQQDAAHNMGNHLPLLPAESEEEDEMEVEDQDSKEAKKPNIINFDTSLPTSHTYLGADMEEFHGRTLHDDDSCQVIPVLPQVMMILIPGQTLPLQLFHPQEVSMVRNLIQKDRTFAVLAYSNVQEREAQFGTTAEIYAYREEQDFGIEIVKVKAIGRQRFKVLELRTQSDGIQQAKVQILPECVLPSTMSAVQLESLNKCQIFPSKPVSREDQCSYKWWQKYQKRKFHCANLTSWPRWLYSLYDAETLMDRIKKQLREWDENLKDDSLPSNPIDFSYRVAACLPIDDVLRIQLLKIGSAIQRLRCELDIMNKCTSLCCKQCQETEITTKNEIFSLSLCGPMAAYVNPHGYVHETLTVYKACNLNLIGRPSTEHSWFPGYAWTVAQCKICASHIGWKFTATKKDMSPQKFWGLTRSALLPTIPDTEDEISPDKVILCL
T2 sequence (Q16531 whole entry partner): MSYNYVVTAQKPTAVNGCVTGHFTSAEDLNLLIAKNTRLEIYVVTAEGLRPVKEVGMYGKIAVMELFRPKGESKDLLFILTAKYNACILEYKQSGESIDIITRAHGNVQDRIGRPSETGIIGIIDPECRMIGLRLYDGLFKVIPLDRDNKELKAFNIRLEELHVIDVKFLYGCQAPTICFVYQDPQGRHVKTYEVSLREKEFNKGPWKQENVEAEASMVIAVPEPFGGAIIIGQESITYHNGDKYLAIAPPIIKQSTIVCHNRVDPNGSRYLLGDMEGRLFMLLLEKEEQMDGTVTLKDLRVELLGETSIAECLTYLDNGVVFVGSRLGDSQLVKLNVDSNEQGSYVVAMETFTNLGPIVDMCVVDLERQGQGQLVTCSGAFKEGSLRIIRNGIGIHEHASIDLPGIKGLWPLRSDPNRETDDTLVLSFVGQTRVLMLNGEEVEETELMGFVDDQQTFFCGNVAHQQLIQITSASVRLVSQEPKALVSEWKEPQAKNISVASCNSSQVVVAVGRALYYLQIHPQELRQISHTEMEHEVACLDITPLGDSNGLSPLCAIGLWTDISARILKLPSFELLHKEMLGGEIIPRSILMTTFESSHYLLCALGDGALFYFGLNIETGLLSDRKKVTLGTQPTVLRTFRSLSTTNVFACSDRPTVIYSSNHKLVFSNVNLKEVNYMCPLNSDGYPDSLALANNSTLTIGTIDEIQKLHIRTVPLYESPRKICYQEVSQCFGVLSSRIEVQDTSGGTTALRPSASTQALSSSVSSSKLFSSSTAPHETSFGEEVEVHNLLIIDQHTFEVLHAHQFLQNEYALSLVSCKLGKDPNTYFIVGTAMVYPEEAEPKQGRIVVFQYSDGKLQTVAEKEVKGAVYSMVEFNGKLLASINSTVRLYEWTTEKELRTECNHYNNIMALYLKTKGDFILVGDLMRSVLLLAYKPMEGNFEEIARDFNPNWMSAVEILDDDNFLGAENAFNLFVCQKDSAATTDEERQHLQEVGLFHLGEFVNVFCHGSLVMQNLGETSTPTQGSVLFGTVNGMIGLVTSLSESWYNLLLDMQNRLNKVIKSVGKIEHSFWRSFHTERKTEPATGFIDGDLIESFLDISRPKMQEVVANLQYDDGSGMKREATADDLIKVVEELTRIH

IKZF2 = target: T3, IKZF2 (Homo sapiens, UniProt Q96SW2+Q9UKS7); test: Western-blot assay of substrate protein degradation in hPBMCs, IKZF2; assay type: cell-based; details: 24 hours of compound treatment
T3 construct: endogenous in cells; host or cells: hPBMCs (Milecell Biotechnologies)
T3 sequence (Q9UKS7 whole entry): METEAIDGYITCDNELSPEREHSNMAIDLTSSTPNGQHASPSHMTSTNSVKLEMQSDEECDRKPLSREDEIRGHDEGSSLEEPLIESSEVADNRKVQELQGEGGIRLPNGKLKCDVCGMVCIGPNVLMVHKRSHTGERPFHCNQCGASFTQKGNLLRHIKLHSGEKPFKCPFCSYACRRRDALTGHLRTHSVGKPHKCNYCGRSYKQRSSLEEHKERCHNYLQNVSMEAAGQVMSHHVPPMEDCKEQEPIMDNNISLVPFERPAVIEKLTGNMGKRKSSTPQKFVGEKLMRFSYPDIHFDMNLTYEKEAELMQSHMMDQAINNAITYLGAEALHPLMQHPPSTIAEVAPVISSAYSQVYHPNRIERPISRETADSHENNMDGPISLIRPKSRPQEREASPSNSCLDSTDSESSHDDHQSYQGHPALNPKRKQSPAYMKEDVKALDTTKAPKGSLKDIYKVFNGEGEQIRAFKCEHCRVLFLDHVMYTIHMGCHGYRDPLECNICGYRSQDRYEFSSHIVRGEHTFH
T3 sequence (Q96SW2 whole entry): as the sequence (Q96SW2 whole entry) above
T3 sequence (Q16531 whole entry partner): as the sequence (Q16531 whole entry partner) above

CK1α = target: T4, CK1α (Homo sapiens, UniProt P48729+Q96SW2); test: Western-blot assay of substrate protein degradation in hPBMCs, CK1α; assay type: cell-based; details: 24 hours of compound treatment
T4 construct: endogenous in cells; host or cells: hPBMCs (Milecell Biotechnologies)
T4 sequence (P48729 whole entry): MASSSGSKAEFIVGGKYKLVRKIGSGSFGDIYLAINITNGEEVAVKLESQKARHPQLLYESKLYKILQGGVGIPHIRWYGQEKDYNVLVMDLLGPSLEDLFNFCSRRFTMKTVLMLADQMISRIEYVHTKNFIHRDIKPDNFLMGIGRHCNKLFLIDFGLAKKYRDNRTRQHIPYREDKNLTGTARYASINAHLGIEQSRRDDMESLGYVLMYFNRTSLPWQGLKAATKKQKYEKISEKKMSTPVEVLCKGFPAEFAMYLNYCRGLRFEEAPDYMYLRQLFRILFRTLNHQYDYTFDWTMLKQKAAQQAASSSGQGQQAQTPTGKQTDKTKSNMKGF
T4 sequence (Q96SW2 whole entry): as the sequence (Q96SW2 whole entry) above
T4 sequence (Q16531 whole entry partner): as the sequence (Q16531 whole entry partner) above

GSPT1 = target: T5, GSPT1 (Homo sapiens, UniProt P15170+Q96SW2); test: Western-blot assay of substrate protein degradation in hPBMCs, GSPT1; assay type: cell-based; details: 24 hours of compound treatment
T5 construct: endogenous in cells; host or cells: hPBMCs (Milecell Biotechnologies)
T5 sequence (P15170 whole entry): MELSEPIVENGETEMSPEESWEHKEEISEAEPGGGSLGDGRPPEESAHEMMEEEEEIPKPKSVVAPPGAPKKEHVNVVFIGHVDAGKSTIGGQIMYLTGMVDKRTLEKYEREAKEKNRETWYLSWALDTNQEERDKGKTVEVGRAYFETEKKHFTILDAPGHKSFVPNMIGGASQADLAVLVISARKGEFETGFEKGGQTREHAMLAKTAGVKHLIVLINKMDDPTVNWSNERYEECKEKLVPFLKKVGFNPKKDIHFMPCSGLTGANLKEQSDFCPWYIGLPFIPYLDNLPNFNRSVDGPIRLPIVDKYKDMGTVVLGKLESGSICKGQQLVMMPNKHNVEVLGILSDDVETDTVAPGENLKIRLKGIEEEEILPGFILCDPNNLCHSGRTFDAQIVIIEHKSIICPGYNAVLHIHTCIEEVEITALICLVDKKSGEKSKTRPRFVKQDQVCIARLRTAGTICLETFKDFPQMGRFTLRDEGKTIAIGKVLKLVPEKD
T5 sequence (Q96SW2 whole entry): as the sequence (Q96SW2 whole entry) above
T5 sequence (Q16531 whole entry partner): as the sequence (Q16531 whole entry partner) above

Jurkat = test: Tumor cell proliferation inhibition (CellTiter-Meiluncell Luminescent Cell Viability Assay), Jurkat; details: Homo sapiens, read-out: inhibitory activity (IC50, nM) against tumor cells proliferation, Jurkat
IKZF3 = target: T6, IKZF3 (Homo sapiens, UniProt Q96SW2+Q9UKT9); test: Western-blot assay of substrate protein degradation in hPBMCs, IKZF3; assay type: cell-based; details: 24 hours of compound treatment
T6 construct: endogenous in cells; host or cells: hPBMCs (Milecell Biotechnologies)

NCI-H1975 = test: Tumor cell proliferation inhibition (CellTiter-Meiluncell Luminescent Cell Viability Assay), NCI-H1975; details: Homo sapiens, NCI-H1975, 96 h, read-out: inhibitory activity (IC50, nM) against tumor cells proliferation, H1975
[1] = target: T7, human Cereblon WT GST-tagged protein (Homo sapiens, UniProt Q96SW2); test: CRBN-binding affinity by HTRF (CEREBLON BINDING kit); details: HTRF inhibitory activity, CEREBLON BINDING kit; read-out: HTRF IC50
T7 construct: purchased CISBIO 64BDCRBNPEH
T7 sequence (Q96SW2 whole entry): as the sequence (Q96SW2 whole entry) above

[2] = tested on: Human breast cancer cells (MDA-MB-231); test: Tumor cell proliferation inhibition (CellTiter-Meiluncell Luminescent Cell Viability Assay), MDA-MB-231; details: for IC50: MDA-MB-231, 96 h, read-out: inhibitory activity (IC50, nM) against tumor cells proliferation, MDA-MB-231; for inhibition at 0.01 µM: MDA-MB-231, read-out: Inhibition rate (%) at 10 nM; for inhibition at 0.5 µM: MDA-MB-231, read-out: Inhibition rate (%) at 500 nM
[3] = tested on: Human acute T lymphocytic leukemia cells (Molt-4); test: Tumor cell proliferation inhibition (CellTiter-Meiluncell Luminescent Cell Viability Assay), Molt-4; details: MOLT-4, 96 h, read-out: inhibitory activity (IC50, nM) against tumor cells proliferation, Molt 4
[4] = 50 nM and 500 nM tested (concentration behind the class not stated)
[5] = compounds tested at 50 nM and 500 nM (concentration of the table not stated)

T1 sequence (Q13422 whole entry): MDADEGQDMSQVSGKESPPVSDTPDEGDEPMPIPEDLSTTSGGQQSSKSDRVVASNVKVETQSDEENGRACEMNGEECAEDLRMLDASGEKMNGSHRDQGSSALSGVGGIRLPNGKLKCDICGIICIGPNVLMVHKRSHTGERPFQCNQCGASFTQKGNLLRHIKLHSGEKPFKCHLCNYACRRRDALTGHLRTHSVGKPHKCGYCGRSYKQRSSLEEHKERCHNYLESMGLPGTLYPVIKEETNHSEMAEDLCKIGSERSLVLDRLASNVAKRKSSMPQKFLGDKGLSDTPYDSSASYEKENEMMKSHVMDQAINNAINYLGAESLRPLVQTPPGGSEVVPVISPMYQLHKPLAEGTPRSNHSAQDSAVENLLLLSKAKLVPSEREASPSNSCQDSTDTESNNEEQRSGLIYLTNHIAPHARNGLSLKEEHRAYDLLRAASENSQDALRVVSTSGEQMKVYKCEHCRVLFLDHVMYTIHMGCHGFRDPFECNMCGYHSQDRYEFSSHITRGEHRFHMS
T1 sequence (Q96SW2 whole entry): as the sequence (Q96SW2 whole entry) above
T1 sequence (Q16531 whole entry partner): as the sequence (Q16531 whole entry partner) above

Row | Structure (SMILES) | IKZF 1 substrate protein remaining % (IKZF1; [4]) | Weel substrate protein remaining % (WEE1; [4]) | IKZF2 substrate protein remaining % (IKZF2; [4]) | CK1a substrate protein remaining % (CK1α; [4]) | GSPT1 substrate protein remaining % (GSPT1; [4]) | IC50 (Jurkat) [nM] | IKZF3 substrate protein remaining % (IKZF3; [4]) | IKZF 1 substrate protein remaining % (IKZF1; [5]) | Weel substrate protein remaining % (WEE1; [5]) | IC50 (NCI-H1975) [nM] | IC50 [1] [nM] | IKZF2 substrate protein remaining % (IKZF2; [5]) | IC50 [2] [nM] | CK1a substrate protein remaining % (CK1α; [5]) | GSPT1 substrate protein remaining % (GSPT1; [5]) | IKZF3 substrate protein remaining % (IKZF3; [5]) | IC50 [3] [nM] | inhibition at 0.01 µM [2] [%] | inhibition at 0.5 µM [2] [%]
1 | O=C1CCC(N2C(=O)c3ccc(CN4CCC(c5ncc6ccsc6n5)CC4)cc3C2=O)C(=O)N1 (stereo not shown) [GT-06652, 2-(2,6-dioxopiperidin-3-yl)-5-((4-(thieno[2,3-d]pyrimidin-2-yl)piperidin-1-yl)methyl)isoindoline-1,3-dione] | B (80%< substrate protein remaining %≤ 100%) | A (0% ≤ substrate protein remaining % ≤ 80%) | A (0% ≤ substrate protein remaining % ≤ 80%) | B (80%< substrate protein remaining %≤ 100%) | A (0% ≤ substrate protein remaining % ≤ 80%) | 100 to 500 | B (80%< substrate protein remaining %≤ 100%) |  |  |  |  |  |  |  |  |  |  |  | 
2 | O=C1CCC(N2Cc3cc(CN4CCC(N5CCCc6cc(F)ccc65)CC4)ccc3C2=O)C(=O)N1 (stereo not shown) [GT-04691, 3-(5-((4-(6-fluoro-3,4-dihydroquinolin-1(2H)-yl)piperidin-1-yl)methyl)-1-oxoisoindolin-2-yl)piperidine-2,6-dione] |  |  |  |  |  |  |  | A (0% ≤ substrate protein remaining % ≤ 80%) | A (0% ≤ substrate protein remaining % ≤ 80%) | 500 to 1000 | 500 to 1000 | A (0% ≤ substrate protein remaining % ≤ 80%) | 500 to 1000 | A (0% ≤ substrate protein remaining % ≤ 80%) | A (0% ≤ substrate protein remaining % ≤ 80%) | A (0% ≤ substrate protein remaining % ≤ 80%) | 10 to 50 |  | 
3 | O=C1CCC(N2C(=O)c3ccc(CN4CCN(c5nc(N6CCCC6)nc6c5SCC6)CC4)cc3C2=O)C(=O)N1 (stereo not shown) [GT-08004, 2-(2,6-dioxopiperidin-3-yl)-5-((4-(2-(pyrrolidin-1-yl)-6,7-dihydrothieno[3,2-d]pyrimidin-4-yl)piperazin-1-yl)methyl)isoindoline-1,3-dione] | A (0% ≤ substrate protein remaining % ≤ 80%) | B (80%< substrate protein remaining %≤ 100%) | A (0% ≤ substrate protein remaining % ≤ 80%) | B (80%< substrate protein remaining %≤ 100%) | A (0% ≤ substrate protein remaining % ≤ 80%) |  | A (0% ≤ substrate protein remaining % ≤ 80%) |  |  |  |  |  |  |  |  |  |  | 30 to 40 | 40 to 50
4 | O=C1CCC(N2Cc3cc(CN4CC=C(c5c[nH]c6cc(F)ccc56)CC4)ccc3C2=O)C(=O)N1 (stereo not shown) [GT-04722, 3-(5-((4-(6-fluoro-1H-indol-3-yl)-3,6-dihydropyridin-1(2H)-yl)methyl)-1-oxoisoindolin-2-yl)piperidine-2,6-dione] |  |  |  |  |  |  |  | B (80%< substrate protein remaining %≤ 100%) | B (80%< substrate protein remaining %≤ 100%) | 100 to 500 | < 500 | B (80%< substrate protein remaining %≤ 100%) | 100 to 500 | A (0% ≤ substrate protein remaining % ≤ 80%) | A (0% ≤ substrate protein remaining % ≤ 80%) | A (0% ≤ substrate protein remaining % ≤ 80%) | 50 to 100 |  | 
5 | Cc1ccsc1C1=CCN(Cc2ccc3c(c2)C(=O)N(C2CCC(=O)NC2=O)C3=O)CC1 (stereo not shown) [GT-04732, 2-(2,6-dioxopiperidin-3-yl)-5-((4-(3-methylthiophen-2-yl)-3,6-dihydropyridin-1(2H)-yl)methyl)isoindoline-1,3-dione] |  |  |  |  |  |  |  | B (80%< substrate protein remaining %≤ 100%) | A (0% ≤ substrate protein remaining % ≤ 80%) |  | 500 to 1000 | B (80%< substrate protein remaining %≤ 100%) | 500 to 1000 | A (0% ≤ substrate protein remaining % ≤ 80%) | A (0% ≤ substrate protein remaining % ≤ 80%) | B (80%< substrate protein remaining %≤ 100%) | 50 to 100 |  | 
6 | O=C1CCC(N2C(=O)c3ccc(CN4CCN(c5nc(N6CCC6)nc6c5SCC6)CC4)cc3C2=O)C(=O)N1 (stereo not shown) [GT-08005, 5-((4-(2-(azetidin-1-yl)-6,7-dihydrothieno[3,2-d]pyrimidin-4-yl)piperazin-1-yl)methyl)-2-(2,6-dioxopiperidin-3-yl)isoindoline-1,3-dione] | A (0% ≤ substrate protein remaining % ≤ 80%) | B (80%< substrate protein remaining %≤ 100%) | A (0% ≤ substrate protein remaining % ≤ 80%) | B (80%< substrate protein remaining %≤ 100%) | B (80%< substrate protein remaining %≤ 100%) |  | A (0% ≤ substrate protein remaining % ≤ 80%) |  |  |  |  |  |  |  |  |  |  | 20 to 30 | 30 to 40
7 | O=C1CCC(N2Cc3cc(CN4C5CC4CN(c4cccc(Cl)c4Cl)C5)ccc3C2=O)C(=O)N1 (stereo not shown) [GT-04712, 3-(5-((3-(2,3-dichlorophenyl)-3,6-diazabicyclo[3.1.1]heptan-6-yl)methyl)-1-oxoisoindolin-2-yl)piperidine-2,6-dione] |  |  |  |  |  |  |  | B (80%< substrate protein remaining %≤ 100%) | B (80%< substrate protein remaining %≤ 100%) | 100 to 500 | 500 to 1000 | B (80%< substrate protein remaining %≤ 100%) | 50 to 100 | A (0% ≤ substrate protein remaining % ≤ 80%) | A (0% ≤ substrate protein remaining % ≤ 80%) | A (0% ≤ substrate protein remaining % ≤ 80%) | 10 to 50 |  | 
8 | O=C1CCC(N2Cc3cc(CN4CCC(c5c[nH]c6ncccc56)CC4)ccc3C2=O)C(=O)N1 (stereo not shown) [GT-04603, 3-(5-((4-(1H-pyrrolo[2,3-b]pyridin-3-yl)piperidin-1-yl)methyl)-1-oxoisoindolin-2-yl)piperidine-2,6-dione] |  |  |  |  |  |  |  | A (0% ≤ substrate protein remaining % ≤ 80%) | A (0% ≤ substrate protein remaining % ≤ 80%) | 100 to 500 | 500 to 1000 | A (0% ≤ substrate protein remaining % ≤ 80%) | 100 to 500 | A (0% ≤ substrate protein remaining % ≤ 80%) | A (0% ≤ substrate protein remaining % ≤ 80%) | A (0% ≤ substrate protein remaining % ≤ 80%) | 10 to 50 |  | 
9 | O=C1CCC(N2C(=O)c3ccc(CN4CCN(c5ncccc5Cl)CC4)cc3C2=O)C(=O)N1 (stereo not shown) [GT-07843, 5-((4-(3-chloropyridin-2-yl)piperazin-1-yl)methyl)-2-(2,6-dioxopiperidin-3-yl)isoindoline-1,3-dione] |  |  |  |  |  |  |  |  |  |  |  |  |  |  |  |  |  | 30 to 40 | 30 to 40
10 | O=C1CCC(N2Cc3cc(CN4CCN(c5nccc(Cl)c5F)CC4)ccc3C2=O)C(=O)N1 (stereo not shown) [GT-04610, 3-(5-((4-(4-chloro-3-fluoropyridin-2-yl)piperazin-1-yl)methyl)-1-oxoisoindolin-2-yl)piperidine-2,6-dione] |  |  |  |  |  |  |  | A (0% ≤ substrate protein remaining % ≤ 80%) | A (0% ≤ substrate protein remaining % ≤ 80%) |  | 500 to 1000 | A (0% ≤ substrate protein remaining % ≤ 80%) |  | A (0% ≤ substrate protein remaining % ≤ 80%) | A (0% ≤ substrate protein remaining % ≤ 80%) | A (0% ≤ substrate protein remaining % ≤ 80%) | 500 to 1000 |  | 
